Results on eleven compounds are retold here after patent US20230232831A1, “MONOTERPENOID AND PHENYLPROPANOID CARBONATE ESTERS AND METHODS OF THEIR MAKING AND USE AS REPELLENTS” (IOWA STATE UNIVERSITY RESEARCH FOUNDATION, INC., priority 2020, published 2023).

Entries after “also recorded” stand apart in the source; their conditions may differ.

Common to all, as to assay type: in vivo
Test [1] has as its system Culex pipiens. Put plainly: Short-term spatial repellency, static air chamber. To be noted: for short-term repellency (result in words): 1 mL of 0.5% solution on filter paper, 15-150 min. How it is done:
FIG. 4 is a graph showing the repellency observed when 1 mL of a 0.5% solution of each compound was applied to a filter paper, dried for 15 minutes, and placed at the treated end of the repellency chamber. FIG. 6 is a graph showing repellency of various compounds against the mosquito species Culex pipiens observed when 1 mL of a 0.5% solution of each compound was applied to a filter paper, dried for 15 minutes, and placed at the treated end of the repellency chamber. The static air chamber used for the repellency assay has been described previously (Klimavicz et al., “Monoterpenoid Isovalerate Esters as Long-lasting Spatial Mosquito Repellents,” In Advances in the Biorational Control of Medicaland Veterinary Pests, American Chemical Society: 2018; Vol. 1289, pp 205-217; Peterson et al., “Identification of Components of Osage Orange Fruit (Maclura pomifera) and Their Repellency to German Cockroaches,” J. Essent. Oil Res. 14:233-236 (2002), which are hereby incorporated by reference in their entirety). For each assay run, a 90-mm Whatman No. 1 filter paper was treated with 1 mL acetone solution containing 0.5% w/v of a carbonate ester. The filter paper was supported upon several pins during the addition of the acetone solution to diminish wicking of the solution away from the filter paper, and the solution was added over approximately thirty seconds to allow acetone to evaporate during the addition to prevent dripping. After the addition of the solution was complete, remaining acetone was permitted to evaporate for […] before testing. A 600-mm-long clear glass cylinder with an inner diameter of 85 mm and a single hole (20 mm diameter) halfway along the side of the cylinder was used for the repellency chamber. One end of the chamber was capped with a glass petri dish (inner diameter 90 mm) containing an untreated 90-mm Whatman No. 1 filter paper, while the other end was likewise covered with a similar petri dish containing the treated filter paper. Immediately after capping both ends of the chamber, 20 non-blood-fed female Culex pipiens mosquitoes were anesthetized with carbon dioxide, and placed into the repellency chamber through the hole in the side of the cylinder via a funnel. The hole was sealed, and the number of mosquitoes on the treated and untreated halves were recorded at 15, 30, 60, 90, 120, and 150 minutes after introduction of the mosquitoes to the chamber. All statistical analysis was performed in R. To determine repellency of a given compound, the number of repelled mosquitoes and the total number of mosquitos the chamber for each trial at a given time point were fit to a beta-binomial distribution to account for overdispersion in the estimated repellency. Because percentage repellency is bound between -100% (completely attracting) and 100% (completely repelling), percentage repellency shown with error bars representing 50% confidence intervals determined from a non-chance-corrected beta-binomial fit to the data, using an inverse link function equal to the psychometric function for the duo-trio test. Statistical significance was determined by nonoverlap of these confidence intervals. Estimates of the proportion of mosquitoes repelled in the chamber was then transformed to percentage repellency, which is expressed as […]

The test system of test [2] is Culex pipiens. The test can be described thus: Long-term repellency, treated filter paper placed in chamber 5 hours after application. To be noted: filter paper placed 5 hours after compound was applied. How it is done: FIG. 5 is a graph showing the repellency observed when 1 mL of each compound was applied to a filter paper placed at the treated end of the repellency chamber 5 hours after compound was applied. FIG. 8 is a graph showing the repellency of various compounds observed when 1 mL of each compound was applied to a filter paper placed at the treated end of the repellency chamber 5 hours after compound was applied. An array of older and newly synthesized carbonates was chosen and tested for repellency activity. Six compounds were screened according to long-term repellency assays and three compounds were screened according to short-term repellency assays. These assays were all conducted using Culex pipiens mosquitoes. The compounds tested are illustrated in Table 1. An array of carbonates was chosen and tested for repellency activity. Some compounds were screened according to long-term repellency assays and some compounds were screened according to short-term repellency assays. These assays were conducted using Culex pipiens mosquitoes or Aedes aegypti mosquitoes.

Test [3] has as its system Culex pipiens. The test can be described thus: Short-term spatial repellency, static air chamber. To be noted: short-term assay, 1 mL of 0.5% solution, dried 15 minutes.

Turning to `CCOC(=O)OCCC(C)CCC=C(C)C` (stereo not shown) [Compound 1a, Citronellyl ethyl carbonate], the “short-term repellency (result in words)” value in test [1] is given as “numerically superior out of all the citronellyl carbonates”. Further, the “mosquitoes repelled in short-term repellency assay” value in test [1] (1 mL of 0.5% w/v acetone solution on filter paper, assay extending out to 2.5 hours) is reported as “approximately 90%”.

Consider `COC(=O)OCCC(C)CCC=C(C)C` (stereo not shown) [Compound 1b, Citronellyl methyl carbonate], for which the “short-term repellency (result in words)” value in test [1] was “numerically, but not statistically, less repellent than 1a”.

Turning to `CC(C)=CCCC(C)CCOC(=O)OC(C)C` (stereo not shown) [Compound 1c, Citronellyl isopropyl carbonate], in test [1], the “short-term repellency (result in words)” value is “numerically, but not statistically, less repellent than 1a”.

Consider `CC(C)=CCCC(C)CCOC(=O)OCC(C)C` (stereo not shown) [Compound 1d, Citronellyl isobutyl carbonate], for which the “short-term repellency (result in words)” value in test [1] is given as “numerically, but not statistically, less repellent than 1a”.

Regarding `CC(C)=CCCC(C)CCOC(=O)Oc1ccccc1` (stereo not shown) [Compound 1f, Citronellyl phenyl carbonate], the “short-term repellency (result in words)” value in test [1] is given as “weakest repellent effect”.

For `CCOC(=O)Oc1cc(C)ccc1C(C)C` [Compound 2a, Ethyl thymyl carbonate], the “short-term repellency (result in words)” value in test [1] is given as “final estimated repellency was approximately the same”; in test [1] (listed as Ethyl thymyl carbonate), “excellent short-term repellent”.

For the compound `Cc1ccc(C(C)C)c(OC(=O)OCC(C)C)c1` [Compound 2d, Isobutyl thymyl carbonate], in test [1], the “short-term repellency (result in words)” value is recorded as “slower onset of high repellency; also recorded: final estimated repellency was approximately the same”.

Regarding `C=C(C)C1CCC(C)CC1OC(=O)OCC` (stereo not shown) [Compound 3a, Ethyl isopulegyl carbonate], in test [2], the “long-term repellency (result in words)” value is “not able to repel mosquitoes very well at all”.

Consider `CCOC(=O)OC1CC2CCC1(C)C2(C)C` (stereo not shown) [Compound 7a, Bornyl ethyl carbonate], for which the “short-term repellency (result in words)” value in test [1] is on record as “only modest repellency”.

`COC(=O)Oc1cc(C)ccc1C(C)C` [Compound 4249, Thymyl methyl carbonate]: the “mortality seen in the repellency chamber” value in test [3] is “significant mortality”.

Take `CCOC(=O)OC1C=C(C)C2CC1C2(C)C` (stereo not shown) [Compound 4251, Verbenyl ethyl carbonate]: the “mortality seen in the repellency chamber” value in test [3] is given as “Very minimal amounts of mortality”.
